Assay results published in US5126258A (priority 1988, dated 1992).

Legend:
Assay type in all cases: biochemical, mouse
[1] = system: P2 57G4; experiment: Catalytic hydrolysis by receptor P2 57G4
Experimental: (§1) Two further catalytic monoclonal receptors were similarly prepared by another fusion using Compound 2i linked to an antigenic carrier as immunogen. Those two catalytic receptor molecules and their hybridomas were designated "P2 50D8" and "P2 57G4".
(§2) In one study, twenty-eight monoclonal anti-hapten antibodies to phosphonate 2i from two separate fusion experiments were assayed. […] Antibodies to Compound 4i as hapten were assayed in the same manner. Twelve gamma-globulins were screened as described above. Compound 5 is homologous only in the acyl portion of this larger hapten; however, all but three of these cross-reacted with smaller phosphonate 2 in an ELISA assay as described herein. For two of these there was observed a fluorescence change, occurring in the first 5 minutes of incubation, which corresponds to about 50 percent of that for complete hydrolysis. The background rate of hydrolysis was reestablished after this initial reaction leveled off.

[2] = system: 7E5; experiment: Hydrolysis of reactant ligands by receptor 7E5; settings: for hydrolysis by 7E5: pH 8.0, receptor/ligand uM, time h: 17 1/10, 2, 18 2/10, 24, 20 2/10, 0.33, 5 1/5, 0.33, 22 5/10, 3.5, preliminary
Experimental: (§3) ^1 Preliminary initial hydrolyses shown as the percentage of admixed
(§4) reactant ligand consumed for catalyzed and spontaneous hydrolyses. "--" =
(§5) No hydrolysis observed. "NT" = Not tried. All reactions were carried out
(§6) at pH 8.0 in a 50 mM phosphate buffer unless otherwise noted. Hydrolytic
(§7) percentages were determined by HPLC using a Hitachi model 655A12 liquid
(§8) chromatograph with a C18 Vydac 201TP54 column, except as noted below.
(§9) Mixtures of acetonitrile a nd water containing 0.1 percent trichloroaceti
(§10) acid [28:72-50:50 (v/v)] were used as elutant. Hydrolyses of Compounds 5
(§11) and 20 were assayed using fluorescence data.
(§12) ^2 Concentrations of receptor molecules (Rec.) and reactant ligands
(§13) (Lig.) in micromolar units, presuming a molecular weight of 150,000
(§14) daltons for each receptor molecule.
(§15) ^3 Reactant ligand (Lig.) used as substrate.
(§16) ^4 Time in hours that the reaction was permitted to take place.
(§17) ^5 Spontaneous hydrolytic percentages for the time period indicated.
(§18) ^6 Reaction carried out at pH 7.2 in a 50 mM phosphate buffer.

[3] = system: Monoclonal Receptor 22F5; experiment: Kinetics of hydrolysis by receptor 22F5
From the text: Reaction kinetics were studied using three reactant ligands as substrates for monoclonal receptors 37G2 and 22F5. Data from initial rates were consistent with Michaelis-Menten reaction mechanism for a usual enzyme-substrate system. Initial rates were followed using at 271 nm using a U.V.-visible spectorphotometer for Compound 17, and a fluorescence spectrometer for Compounds 5 and 20, using an excitation wavelength of 355 nm and an emission wavelength of 455 nm for both compounds.
Lineweaver-Burke plots for the catalyzed hydrolysis of Compounds 17, 5 and 20 obtained in the presence and absence of Compound 12i as inhibitor were prepared as discussed for FIG. 4. In particular, Compound 17 was present at concentrations of 1-16 uM with inhibitor concentrations of 100 and 300 nanomolar (nM). Compound 5 was present at concentrations of 1-10 uM with inhibitor concentrations of 100 and 200 nM. Compound 20 was present at concentrations of 2-20 uM with inhibitor concentrations of 25 and 100 nM.
*Fluorescence assays using Compounds 20 and 5 were carried out in a
PerkinElmer fluorescence spectrophotometer (moded LS5; Oakbrook, IL) usin
200 nanomolar receptor (based on a molecular weight of 150,000 daltons) i
50 mM phosphate buffer at a pH value of 8.0. The reactant ligand was
dissolved in dioxane and admixed in the amounts discussed above. Two
milliliters of reaction solution were utilized as was a dioxane
concentration of 2 percent by volume. […]

[4] = system: twenty-eight monoclonal anti-hapten antibodies to phosphonate 2i; experiment: Fluorescence assay of twenty-eight anti-phosphonate 2i antibodies with Compound 5; settings: pH 7.2
Experimental: (§19) A Perkin-Elmer LS-5 fluorescence spectrometer was operated at a fixed wavelength, using 355 nanometers (nm) for excitation and measuring the emission at 455 nm. A stock solution of the coumarin ester 5 was prepared in dioxane and was diluted to the desired concentrations in Tris-HCl (50 mM, pH 7) or sodium phosphate (50 mM, pH 4-9).
Reactions were run at 23 degrees C and were initiated by the addition of an aliquot of antibody solution (1 mg/ml) to substrate solutions to provide a final protein concentration of 100 nM. Final fluorescence values were determined by hydrolysis of the substrate with pig liver esterase. The observed reaction rate was corrected for spontaneous hydrolysis. […] Active protein concentration was extrapolated from fluorescence values at the end of the reaction. […] Inhibition constants were determined from the Lineweaver-Burk plot data with at least five inhibitor concentrations. […]
The practical range of pH for the assay is limited by the rapid spontaneous rate of hydrolysis of an ester Compound 5 above pH 8.0. […] Any change in fluorescence above background was noted.
In one study, twenty-eight monoclonal anti-hapten antibodies to phosphonate 2i from two separate fusion experiments were assayed. […] For two of these there was observed a fluorescence change, occurring in the first 5 minutes of incubation, which corresponds to about 50 percent of that for complete hydrolysis. […]

[5] = system: monoclonal receptor P3 6D4; experiment: Stoichiometric transacylation reaction of monoclonal receptor P3 6D4 with coumarin ester Compound 5 (fluorescence) and its inhibition/inactivation
In short: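 Antibody P3 6D4 (100 nM final) reacted at 23 °C with coumarin ester 5 in Tris-HCl or phosphate buffer (50 mM, pH 4–9), followed by fluorescence (ex 355/em 455 nm). Initial rates corrected for spontaneous hydrolysis; kinetic parameters from hyperbolic and double-reciprocal fits, Ki from Lineweaver-Burk with ≥5 inhibitor concentrations.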

[6] = system: anti-Compound 4i antibodies; experiment: Fluorescence esterolytic assay of twelve anti-Compound 4i gamma-globulins with Compound 5; settings: two of twelve anti-Compound 4i antibodies, first 5 minutes of incubation
Experimental: as §19
Reactions were run at 23 degrees C and were initiated by the addition of an aliquot of antibody solution (1 mg/ml) to substrate solutions to provide a final protein concentration of 100 nM. Final fluorescence values were determined by hydrolysis of the substrate with pig liver esterase. The observed reaction rate was corrected for spontaneous hydrolysis. Reaction kinetics were studied by measuring initial rates under pseudo-first order conditions. Active protein concentration was extrapolated from fluorescence values at the end of the reaction. The kinetic parameters were obtained by fitting the data to a hyperbolic curve and from double reciprocal plots. Inhibition constants were determined from the Lineweaver-Burk plot data with at least five inhibitor concentrations. […]
The fluorescence change upon hydrolysis of coumarin esters is easily detectable at nanomolar concentrations.
The practical range of pH for the assay is limited by the rapid spontaneous rate of hydrolysis of an ester Compound 5 above pH 8.0. […] Any change in fluorescence above background was noted. […]

[7] = system: P2 50D8; experiment: Catalytic hydrolysis by receptor P2 50D8
Experimental: as §1, §2

[8] = system: 22F5; experiment: Hydrolysis of reactant ligands by receptor 22F5; settings: for hydrolysis by 22F5: pH 8.0, receptor/ligand uM, time h: 17 1/10, 2, 18 2/10, 24, 20 2/10, 0.33, 5 1/5, 0.33, 22 5/10, 3.5, preliminary
Experimental: as §3, §4, §5, §6, §7, §8, §9, §10, §11, §12, §13, §14, §15, §16, §17, §18

[9] = pH 7.2, 1 uM receptor, 10 uM ligand, 2 h

SMILES	catalytic hydrolysis by P2 57G4 [1]	hydrolysis by 7E5 [2]	Km ([3]; 50 mM phosphate pH 8.0, 200 nM receptor, 2% dioxane, figure = Km × 10^6) [µM]	kcat ([3]; pH 8.0) [s⁻¹]	Vmax ([3]; pH 8.0, 200 nM receptor, figure = Vmax × 10^9) [µM/min]	reactivity with Compound 5 in fluorescence assay [4]	inactivation of receptor [5]	stoichiometry, mole of ester per mole of combining sites ([5]; IgG molecular weight 150,000 assumed)	rate change pH 8.0 versus pH 7.0 ([5]; preliminary)	fluorescence change as share of complete hydrolysis [6]	catalytic hydrolysis by P2 50D8 [7]	hydrolysis by 22F5 [8]	hydrolysis by 7E5, pH 7.2 [2, 9]	hydrolysis by 22F5, pH 7.2 [8, 9]
O=C(Cc1ccc(NC(=O)C(F)(F)F)cc1)Oc1ccc2ccc(=O)oc2c1 [Compound 5]	capable of catalytically hydrolyzing	8 percentage of reactant ligand	1.4	0.0022	0.0912	None of these were reactive	specific inactivator	one	modest rate increase	about 50%	capable of catalytically hydrolyzing	48 percentage of reactant ligand	–	–
CC(=O)Nc1ccc(CC(=O)Oc2cccc3ccccc23)cc1 [Compound 17]	–	30 percentage of reactant ligand	–	–	–	–	–	–	–	–	–	51 percentage of reactant ligand	35 percentage of reactant ligand	16 percentage of reactant ligand
